The text below walks through data of US7411069B2 (Hypnion, Inc., priority 2003, dated 2008).

One assay concerns the target T1, M3 muscarinic receptor (Homo sapiens, UniProt P20309).
T1 construct: purchased PerkinElmer, Inc., Wellesley, Mass; host or cells: CHO cells
As to the kind of experiment: M3 binding assay ([3H]-scopolamine, N-methyl chloride displacement).

In the next assay the target is T2, H1 histamine receptor (Bos taurus, UniProt P30546).
T2 construct: the receptors were obtained from bovine cerebellar membrane tissue; from tissue; host or cells: bovine cerebellar membranes
As to conditions: reference compounds; unit inferred; read-out: Ki, H1 binding assay reference compounds; cited from earlier work.

Another assay addresses T3, M2 muscarinic receptor (Homo sapiens, UniProt P08172).
T3 construct: purchased PerkinElmer, Inc., Wellesley, Mass; host or cells: CHO cells
T3 sequence (P08172 1-466): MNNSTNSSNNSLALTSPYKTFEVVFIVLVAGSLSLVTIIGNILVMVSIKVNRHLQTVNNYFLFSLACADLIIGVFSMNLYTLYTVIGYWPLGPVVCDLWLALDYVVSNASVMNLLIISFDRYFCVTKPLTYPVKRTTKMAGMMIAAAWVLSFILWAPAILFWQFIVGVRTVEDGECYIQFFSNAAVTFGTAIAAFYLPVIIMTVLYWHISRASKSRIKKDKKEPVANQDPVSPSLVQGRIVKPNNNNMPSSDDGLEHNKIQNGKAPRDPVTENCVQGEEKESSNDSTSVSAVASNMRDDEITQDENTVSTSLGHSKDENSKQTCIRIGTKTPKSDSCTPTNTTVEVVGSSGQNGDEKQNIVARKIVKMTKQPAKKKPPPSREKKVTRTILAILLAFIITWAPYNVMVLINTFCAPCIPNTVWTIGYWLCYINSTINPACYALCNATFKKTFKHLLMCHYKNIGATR
As to the kind of experiment: M2 binding assay ([3H]-scopolamine, N-methyl chloride displacement).

As a reminder, the Ki is a dissociation constant, usually derived from enzyme kinetics or from competition with a known ligand.

T1 sequence (P20309 whole entry): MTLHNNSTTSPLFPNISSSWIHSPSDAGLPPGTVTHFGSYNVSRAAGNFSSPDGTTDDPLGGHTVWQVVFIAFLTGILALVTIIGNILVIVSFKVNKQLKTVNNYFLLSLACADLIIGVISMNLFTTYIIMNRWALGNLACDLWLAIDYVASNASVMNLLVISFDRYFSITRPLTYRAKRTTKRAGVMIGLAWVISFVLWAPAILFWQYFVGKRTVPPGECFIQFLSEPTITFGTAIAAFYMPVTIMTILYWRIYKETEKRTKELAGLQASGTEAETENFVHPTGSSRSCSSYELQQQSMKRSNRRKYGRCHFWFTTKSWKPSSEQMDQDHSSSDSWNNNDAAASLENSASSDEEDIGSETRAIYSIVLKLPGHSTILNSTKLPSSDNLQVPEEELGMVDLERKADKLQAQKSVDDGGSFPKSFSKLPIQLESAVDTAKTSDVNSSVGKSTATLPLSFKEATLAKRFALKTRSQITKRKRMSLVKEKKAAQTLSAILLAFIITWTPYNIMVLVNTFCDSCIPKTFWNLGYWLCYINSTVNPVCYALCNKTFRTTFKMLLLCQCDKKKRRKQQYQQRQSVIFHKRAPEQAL
T2 sequence (P30546 whole entry): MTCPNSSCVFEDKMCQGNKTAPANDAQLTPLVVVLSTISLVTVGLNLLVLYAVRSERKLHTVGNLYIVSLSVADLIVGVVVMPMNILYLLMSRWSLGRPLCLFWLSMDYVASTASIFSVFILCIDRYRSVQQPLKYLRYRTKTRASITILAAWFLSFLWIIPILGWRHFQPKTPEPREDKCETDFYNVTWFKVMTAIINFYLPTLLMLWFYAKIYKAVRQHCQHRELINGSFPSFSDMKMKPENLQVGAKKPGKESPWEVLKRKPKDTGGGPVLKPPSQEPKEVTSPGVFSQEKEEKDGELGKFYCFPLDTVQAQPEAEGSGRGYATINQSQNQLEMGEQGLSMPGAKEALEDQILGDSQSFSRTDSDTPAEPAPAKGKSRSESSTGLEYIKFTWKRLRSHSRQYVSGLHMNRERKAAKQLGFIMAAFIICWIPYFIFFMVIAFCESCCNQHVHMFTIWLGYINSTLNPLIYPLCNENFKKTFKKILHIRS

The molecule `CC(C)(CCN1CCC(=C2c3ccccc3COc3ccccc32)CC1)C(=O)O` [Compound 70a] displayed a Ki at M3 muscarinic receptor of over 10 µM.
Consider `CN(C)CCCSC(=N)N` [dimaprit], for which the Ki at H1 histamine receptor is over 10 µM.
In the case of `C[N+]1(C)C2CC(OC(=O)C(CO)c3ccccc3)CC1C1OC12.[Br-]` (single isomer, unassigned; (-)) [scopolamine, MethylBr, (−)-scopolamine, methyl-, bromide, reference compound], on M2 muscarinic receptor, the “Slope, M2 binding curve” value is on record as −0.89.
